The results in this text go back to patent publication US12252524B2, “GIP/GLP1 co-agonist compounds” (Eli Lilly and Company, priority 2018, dated 2025).

The structures appear in SMILES notation. Like-named read-outs stand apart in the source and are kept apart here. Numbered stars: 1 amine (or outer) side, 2 acyl side, 3 side chain; on linkers, the order of the positions; unused ones are H or OH. Square brackets hold non-standard residues; d marks the D form. Side chains are listed from the residue outwards. Peptide text beside a SMILES is read from it. * marks the point of attachment. C20 diacid = O=C(O)CCCCCCCCCCCCCCCCCCC(=O)*; C18 diacid = O=C(O)CCCCCCCCCCCCCCCCC(=O)*; γGlu = O=C(O)[C@H](CCC(=O)[*:2])N[*:1]; αMeF = C[C@](N)(Cc1ccccc1)C(=O)O; αMeL = CC(C)C[C@](C)(N)C(=O)O; AEEA = NCCOCCOCC(=O)O; Aib = CC(C)(N)C(=O)O

The target of series [1] is T1, human GIP receptor (Homo sapiens, UniProt P48546).
T1 construct: expressed in transfected cells; crude membranes
T1 sequence (P48546 22-466): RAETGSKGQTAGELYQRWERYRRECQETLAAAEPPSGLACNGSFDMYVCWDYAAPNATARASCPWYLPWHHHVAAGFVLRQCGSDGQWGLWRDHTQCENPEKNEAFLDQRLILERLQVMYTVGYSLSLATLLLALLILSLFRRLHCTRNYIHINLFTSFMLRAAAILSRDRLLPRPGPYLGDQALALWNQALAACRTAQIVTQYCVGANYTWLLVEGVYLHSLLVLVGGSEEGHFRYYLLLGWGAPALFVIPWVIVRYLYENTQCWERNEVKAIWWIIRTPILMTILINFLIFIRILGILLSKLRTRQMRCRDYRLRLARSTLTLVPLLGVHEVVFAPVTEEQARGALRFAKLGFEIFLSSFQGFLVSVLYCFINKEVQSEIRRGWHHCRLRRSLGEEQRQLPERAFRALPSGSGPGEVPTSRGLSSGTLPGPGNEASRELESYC
Description: [125I]-GIP binding (SPA), human GIP receptor.

For series [2] the following is noted: single subcutaneous 200 nMol/kg, male CD-1 mice.
Description: (§1) The pharmacokinetics of select Examples are evaluated following a single subcutaneous administration of 200 nMol/kg to male CD-1 mice. […] Plasma (K3 EDTA) concentrations are determined using a qualified LC/MS method that measures the intact mass of the Examples. […] Instruments are combined for LC/MS detection.
The conditions of series [3]: single subcutaneous 50 nMol/kg, male cynomolgus monkeys.
Description: (§2) Pharmacokinetics in male Cynomolgus Monkeys The pharmacokinetics of select Examples are evaluated following a single subcutaneous administration of 50 nMol/kg to male cynomolgus monkeys. […] Peptide plasma (K3 EDTA) concentrations are determined using a qualified LC/MS method that measured the intact mass of the compound. […] Instruments are combined for LC/MS detection.
The conditions of series [4]: single subcutaneous 50 nMol/kg, male Sprague Dawley rats; mean (SD).
Description: (§3) The pharmacokinetics of select Examples are evaluated following a single subcutaneous (SC) administration of 50 nMol/kg (dissolved in PBS, pH 7.4) or single 1 μmol/kg (mixed with 250 mM sodium decanoate (“C10”) and 12 mg/mL soybean trypsin inhibitor (SBTI)) intrajejunal (IJ) administration to male Sprague Dawley rats. […] Pharmacokinetic parameters are calculated using individual plasma concentrations. A qualified LC/MS method that measures the intact mass of the Example is used to determine plasma (K3 EDTA) concentrations. Each Example is tested with an analog peptide as an internal standard. Immunoaffinity based precipitation with anti-GIP/GLP1 antibodies is used to extract each test peptide and analog.
For series [5] the following is noted: single intrajejunal 1 μmol/kg with 250 mM C10 and 12 mg/mL SBTI, male Sprague Dawley rats.
Description: as §3
Series [6] in a line: in vivo. The following applies: male, CD-1, mouse, plasma, sc, 200 nmol/kg.
Description: as §1
Series [7] in a line: in vivo. The following applies: male, cynomolgus monkey, plasma, sc, 50 nmol/kg.
Description: as §2
The nature of series [8]: in vivo. The following applies: male, Sprague Dawley, rat, plasma, sc, 50 nmol/kg.
Description: as §3
For series [9], the target named is human GLP-1R (Homo sapiens, UniProt P43220). Description: [125I]-GLP-1 binding (SPA), human GLP-1 receptor. Also on record: expressed in transfected cells; crude membranes. In short, it runs like this: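 Frozen cell pellets are lysed on ice in hypotonic Tris buffer, pH 7.5, homogenized, and centrifuged to a membrane pellet resuspended at about 1 to 3 mg/mL. Binding is then measured in HEPES-based buffer at pH 7.4, and curves are fitted to give IC50 and Ki.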
Chain of human GLP-1R (P43220 24-463): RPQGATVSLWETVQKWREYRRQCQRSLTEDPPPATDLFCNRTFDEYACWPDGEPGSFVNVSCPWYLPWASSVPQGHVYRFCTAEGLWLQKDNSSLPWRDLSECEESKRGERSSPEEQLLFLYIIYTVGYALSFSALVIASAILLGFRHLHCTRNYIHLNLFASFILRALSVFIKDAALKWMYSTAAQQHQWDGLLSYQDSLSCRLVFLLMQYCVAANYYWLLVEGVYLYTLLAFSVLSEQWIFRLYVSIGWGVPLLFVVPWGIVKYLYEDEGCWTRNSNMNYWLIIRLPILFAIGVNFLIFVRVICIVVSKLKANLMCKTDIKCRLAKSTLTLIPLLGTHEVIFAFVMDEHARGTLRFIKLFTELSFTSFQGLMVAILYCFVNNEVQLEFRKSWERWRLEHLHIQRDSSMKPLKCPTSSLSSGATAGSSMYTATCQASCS

The subject of series [10] is CD8+ T cell depleted peripheral blood mononuclear cells. Description: CD4+ T cell assay for potential clinical immunogenicity.
Description: (§4) The purpose of this study is to determine the relative potential for clinical immunogenicity of a compound.
(§5) CD8+ T cell depleted peripheral blood mononuclear cells are prepared and labeled with Carboxyfluorescein Diacetate Succinimidyl Ester (CFSE, Invitrogen) from a cohort of 10 healthy donors. […] Cultures are incubated for 7 days at 37° C. with 5% CO2. On day 7, samples are analyzed by flow cytometry using High Throughput Sampler (HTS). Data is analyzed using FlowJo® Software (FlowJo, LLC, TreeStar).
Series [11] has the same test system.
Description: as §4, §5
[12] abbreviates: read-out: hGIPR Ki, nM (SEM, n).
[13] abbreviates: read-out: hGLP1R Ki, (nM) (SEM, n).

One may read the Ki as a measure of affinity in units of concentration, obtained from inhibition or displacement. Broadly, the CL/F is clearance divided by bioavailability, as obtained after extravascular dosing. A word on the Tmax: it is the time from dosing to the highest level. As usually defined, the half-life is how long it takes for the measured level to halve. Low values mean rapid decline, high ones slow decline. Turning to `CC[C@H](C)[C@H](NC(=O)[C@H](CC(C)C)NC(=O)[C@H](Cc1ccc(O)cc1)NC(=O)[C@@H](CCC(=O)O)NC(=O)[C@@H](NC(=O)[C@H](Cc1ccccc1)NC(=O)[C@H](CCC(=O)O)NC(=O)C(C)(C)NC(=O)[C@H](CCC(N)=O)NC(=O)[C@H](C)NC(=O)[C@H](CCCCNC(=O)COCCOCCNC(=O)COCCOCCNC(=O)CC[C@H](NC(=O)CCCCCCCCCCCCCCCCCCC(=O)O)C(=O)O)NC(=O)[C@H](CCCN)NC(=O)[C@H](CC(=O)O)NC(=O)[C@H](CC(C)C)NC(=O)[C@](C)(CC(C)C)NC(=O)[C@@H](NC(=O)[C@H](CO)NC(=O)[C@H](Cc1ccc(O)cc1)NC(=O)[C@H](CC(=O)O)NC(=O)[C@H](CO)NC(=O)[C@@H](NC(=O)[C@](C)(Cc1ccccc1F)NC(=O)[C@@H](NC(=O)CNC(=O)[C@H](CCC(=O)O)NC(=O)C(C)(C)NC(=O)[C@@H](N)Cc1ccc(O)cc1)[C@@H](C)O)[C@@H](C)O)[C@@H](C)CC)[C@@H](C)CC)C(=O)N[C@@H](CCC(=O)O)C(=O)NCC(=O)NCC(=O)N1CCC[C@H]1C(=O)N[C@@H](CO)C(=O)N[C@@H](CO)C(=O)NCC(=O)N[C@@H](C)C(=O)N1CCC[C@H]1C(=O)N1CCC[C@H]1C(=O)N1CCC[C@H]1C(=O)N[C@@H](CO)C(N)=O` [Example 3], the Ki in series [1] was 0.0458 nM; in [9] it was 2.23 nM. The AUCINF_D_obs is given as 158.49 hr*kg*nmol/L/nmol in series [2], 3420 hr*kg*nmol/L/nmol in [3], 371.8 (21.8) hr*kg*nmol/L/nmol in series [4] and 8.45 hr*kg*nmol/L/nmol in [5]. Besides, the Cmax/D in series [2] is recorded as 4.42 kg*nmol/L/nmol; in series [3] it was 11.38 kg*nmol/L/nmol; in [4] it was 4.71 (0.50) kg*nmol/L/nmol; in series [5] (mean (SD)), 0.47 (0.16) kg*nmol/L/nmol. Besides, the CL/F is 6.31 mL/h/kg in series [6], 0.29 mL/h/kg in series [7] and 2.7 mL/h/kg in series [8]. The results for the Tmax in series [6], in [7] and in [8] were 6 h, 30 h and 21.3 h, respectively. The half-life in series [6] was 15 h; in [7], 181 h; in series [8] it was 32.1 h. In series [10] (CD4+ T cell assay), the “frequency of positive CD+ T cell response (CDI>2.5)” value (“frequency” below) is recorded as “low”. Further, the “% Donor Response (CD4+ T cell response)” value in series [10] (Examples 10 uM, KLH 0.33 μM, 7 days) is given as 0%.

`CC[C@H](C)[C@H](NC(=O)[C@H](CC(C)C)NC(=O)[C@H](Cc1ccc(O)cc1)NC(=O)[C@H](CCC(=O)O)NC(=O)[C@@H](NC(=O)[C@H](Cc1ccccc1)NC(=O)[C@H](C)NC(=O)C(C)(C)NC(=O)[C@H](CCC(N)=O)NC(=O)[C@H](C)NC(=O)[C@H](CCCCNC(=O)COCCOCCNC(=O)COCCOCCNC(=O)CC[C@H](NC(=O)CCCCCCCCCCCCCCCCCCC(=O)O)C(=O)O)NC(=O)[C@H](CCCCN)NC(=O)[C@H](CC(=O)O)NC(=O)[C@H](CC(C)C)NC(=O)[C@H](CC(C)C)NC(=O)[C@@H](NC(=O)[C@H](CO)NC(=O)[C@H](Cc1ccc(O)cc1)NC(=O)[C@H](CC(=O)O)NC(=O)[C@H](CO)NC(=O)[C@@H](NC(=O)[C@H](Cc1ccccc1)NC(=O)[C@@H](NC(=O)CNC(=O)[C@H](CCC(=O)O)NC(=O)C(C)(C)NC(=O)[C@@H](N)Cc1ccc(O)cc1)[C@@H](C)O)[C@@H](C)O)[C@@H](C)CC)[C@@H](C)CC)C(=O)N[C@@H](C)C(=O)NCC(=O)NCC(=O)N1CCC[C@H]1C(=O)N[C@@H](CO)C(=O)N[C@@H](CO)C(=O)NCC(=O)N[C@@H](C)C(=O)N1CCC[C@H]1C(=O)N1CCC[C@H]1C(=O)N1CCC[C@H]1C(=O)N[C@@H](CO)C(N)=O` [Example 288] (H-Y[Aib]EGTFTSDYSILLDKK([AEEA-AEEA-γGlu-C20 diacid])AQ[Aib]AFIEYLIAGGPSSGAPPPS-NH2; N-terminus assumed): the Ki in series [1] (setting [12]) stood at 0.058 nM; in series [9] (setting [13]), 1.6 nM. Further, in series [11], the “frequency” value is recorded as “low”.

With `CC[C@H](C)[C@H](NC(=O)[C@H](CC(C)C)NC(=O)[C@H](Cc1ccc(O)cc1)NC(=O)[C@H](CCC(=O)O)NC(=O)[C@@H](NC(=O)[C@H](Cc1ccccc1)NC(=O)[C@H](CCC(=O)O)NC(=O)C(C)(C)NC(=O)[C@H](CCC(N)=O)NC(=O)[C@H](C)NC(=O)[C@H](CCCCNC(=O)COCCOCCNC(=O)COCCOCCNC(=O)CC[C@H](NC(=O)CCCCCCCCCCCCCCCCCCC(=O)O)C(=O)O)NC(=O)[C@H](CCCCN)NC(=O)[C@H](CC(=O)O)NC(=O)[C@H](CC(C)C)NC(=O)[C@](C)(CC(C)C)NC(=O)[C@@H](NC(=O)[C@H](CO)NC(=O)[C@H](Cc1ccc(O)cc1)NC(=O)[C@H](CC(=O)O)NC(=O)[C@H](CO)NC(=O)[C@@H](NC(=O)[C@H](Cc1ccccc1)NC(=O)[C@@H](NC(=O)CNC(=O)[C@H](CCC(=O)O)NC(=O)C(C)(C)NC(=O)[C@@H](N)Cc1ccc(O)cc1)[C@@H](C)O)[C@@H](C)O)[C@@H](C)CC)[C@@H](C)CC)C(=O)N[C@@H](C)C(=O)NCC(=O)NCC(=O)N1CCC[C@H]1C(=O)N[C@@H](CO)C(=O)N[C@@H](CO)C(=O)NCC(=O)N[C@@H](C)C(=O)N1CCC[C@H]1C(=O)N1CCC[C@H]1C(=O)N1CCC[C@H]1C(=O)N[C@@H](CO)C(N)=O` [Example 289] (H-Y[Aib]EGTFTSDYSI[αMeL]LDKK([AEEA-AEEA-γGlu-C20 diacid])AQ[Aib]EFIEYLIAGGPSSGAPPPS-NH2), the figures for the Ki in series [1] (setting [12]) and in series [9] (setting [13]) were 0.0457 nM and 2.63 nM, respectively. Besides, the “frequency” value in [11] is reported as “low”.

Take `CC[C@H](C)[C@H](NC(=O)[C@H](CC(C)C)NC(=O)[C@H](Cc1ccc(O)cc1)NC(=O)[C@H](CCC(=O)O)NC(=O)[C@@H](NC(=O)[C@H](Cc1ccccc1)NC(=O)[C@H](C)NC(=O)C(C)(C)NC(=O)[C@H](CCC(N)=O)NC(=O)[C@H](C)NC(=O)[C@H](CCCCNC(=O)COCCOCCNC(=O)COCCOCCNC(=O)CC[C@H](NC(=O)CCCCCCCCCCCCCCCCC(=O)O)C(=O)O)NC(=O)[C@H](CCCCN)NC(=O)[C@H](CC(=O)O)NC(=O)[C@H](CC(C)C)NC(=O)[C@H](CC(C)C)NC(=O)[C@@H](NC(=O)[C@H](CO)NC(=O)[C@H](Cc1ccc(O)cc1)NC(=O)[C@H](CC(=O)O)NC(=O)[C@H](CO)NC(=O)[C@@H](NC(=O)[C@](C)(Cc1ccccc1)NC(=O)[C@@H](NC(=O)CNC(=O)[C@H](CCC(=O)O)NC(=O)C(C)(C)NC(=O)[C@@H](N)Cc1ccc(O)cc1)[C@@H](C)O)[C@@H](C)O)[C@@H](C)CC)[C@@H](C)CC)C(=O)N[C@@H](CCC(=O)O)C(=O)NCC(=O)NCC(=O)N1CCC[C@H]1C(=O)N[C@@H](CO)C(=O)N[C@@H](CO)C(=O)NCC(N)=O` [Example 301] (H-Y[Aib]EGT[αMeF]TSDYSILLDKK([AEEA-AEEA-γGlu-C18 diacid])AQ[Aib]AFIEYLIEGGPSSG-NH2): the Ki in series [1] (setting [12]) amounted to 0.0273 nM; in series [9] (setting [13]), 0.875 nM. In series [11], the “frequency” value is “low”.

`CC[C@H](C)[C@H](NC(=O)[C@H](CC(C)C)NC(=O)[C@H](Cc1ccc(O)cc1)NC(=O)[C@H](CCC(=O)O)NC(=O)[C@@H](NC(=O)[C@H](Cc1ccccc1)NC(=O)[C@H](C)NC(=O)C(C)(C)NC(=O)[C@H](CCC(N)=O)NC(=O)[C@H](C)NC(=O)[C@H](CCCCNC(=O)COCCOCCNC(=O)COCCOCCNC(=O)CC[C@H](NC(=O)CCCCCCCCCCCCCCCCC(=O)O)C(=O)O)NC(=O)[C@H](CCC(=O)O)NC(=O)[C@H](CC(=O)O)NC(=O)[C@H](CC(C)C)NC(=O)[C@](C)(CC(C)C)NC(=O)[C@@H](NC(=O)[C@H](CO)NC(=O)[C@H](Cc1ccc(O)cc1)NC(=O)[C@H](CC(=O)O)NC(=O)[C@H](CO)NC(=O)[C@@H](NC(=O)[C@H](Cc1ccccc1)NC(=O)[C@@H](NC(=O)CNC(=O)[C@H](CCC(=O)O)NC(=O)C(C)(C)NC(=O)[C@@H](N)Cc1ccc(O)cc1)[C@@H](C)O)[C@@H](C)O)[C@@H](C)CC)[C@@H](C)CC)C(=O)N[C@@H](CCC(=O)O)C(=O)NCC(=O)NCC(=O)N1CCC[C@H]1C(=O)N[C@@H](CO)C(=O)N[C@@H](CO)C(=O)NCC(N)=O` [Example 303] (H-Y[Aib]EGTFTSDYSI[αMeL]LDEK([AEEA-AEEA-γGlu-C18 diacid])AQ[Aib]AFIEYLIEGGPSSG-NH2): the Ki is 0.058 nM in series [1] (setting [12]) and 3.69 nM in series [9] (setting [13]). Also, in [11], the “frequency” value is reported as “low”.
